Experimental data published in the NIST ThermoML archive (doi:10.1016/j.jct.2014.02.016).

Assay: refractive index (other wavelength) (dimensionless)
Details: 100 kPa, Liquid, Wavelength=632.8 nm, Angle minimization by sell rotation

CCCCCCCCCCCCC [tridecane]
Details | refractive index
294.14 K | 1.4241
295.15 K | 1.4236
296.18 K | 1.4232
297.23 K | 1.4227
299.35 K | 1.4218
300.44 K | 1.4213
302.44 K | 1.4204
303.67 K | 1.4199
304.45 K | 1.4196

COC(=O)OC [dimethyl carbonate]
Details | refractive index
293.16 K | 1.3678
294.29 K | 1.3673
295.28 K | 1.3669
296.28 K | 1.3663
297.28 K | 1.3659
298.3 K | 1.3654
300.3 K | 1.3644
302.3 K | 1.3635
303.4 K | 1.363

CCCCCCCCCCC [undecane]
Details | refractive index
293.4 K | 1.4162
294.3 K | 1.4157
295.27 K | 1.4152
296.26 K | 1.4148
297.25 K | 1.4144
298.27 K | 1.4139
299.34 K | 1.4134
300.31 K | 1.413
301.27 K | 1.4126
